# How the values were obtained:
# DCLK3/DCAMKL3 = DCLK3/DCAMKL3 (Homo sapiens, UniProt Q9C098); test: DiscoverX scanMAX competition binding assay; design: purchased Eurofins DiscoverX Corporation
# Text: (§1) Based on its narrow profile when tested in the combined Nanosyn and TSA panels, GW296115 was included in the recently released Kinase Chemogenomic Set (KCGS)[15]. All of the data presented in the Introduction section was collected prior to the inclusion of GW296115 in KCGS and everything that follows has been subsequently generated. Since its inclusion in PKIS and more recently KCGS, we have carried out a broader round of screening at DiscoverX. This profiling data has not been previously released and is reported here for the first time. GW296115 was profiled against 403 wild type human kinases at 1 μM using the DiscoverX scanMAX screening platform, which employs an active site-directed competition binding assay to quantitatively measure interactions between test compounds and kinases, [16]. GW296115 inhibited 25 kinases > 90% at 1 μM, resulting in a selectivity index (S10) of 0.062 at 1 μM (Table S2, Fig. 1C)[17].
# (§2) The scanMAX assays were performed at Eurofins DiscoverX Corporation as previously described.
# DMPK = DMPK (Homo sapiens, UniProt Q09013); test: DiscoverX scanMAX competition binding assay; design: purchased Eurofins DiscoverX Corporation
# Chain of DMPK (Q09013 whole entry): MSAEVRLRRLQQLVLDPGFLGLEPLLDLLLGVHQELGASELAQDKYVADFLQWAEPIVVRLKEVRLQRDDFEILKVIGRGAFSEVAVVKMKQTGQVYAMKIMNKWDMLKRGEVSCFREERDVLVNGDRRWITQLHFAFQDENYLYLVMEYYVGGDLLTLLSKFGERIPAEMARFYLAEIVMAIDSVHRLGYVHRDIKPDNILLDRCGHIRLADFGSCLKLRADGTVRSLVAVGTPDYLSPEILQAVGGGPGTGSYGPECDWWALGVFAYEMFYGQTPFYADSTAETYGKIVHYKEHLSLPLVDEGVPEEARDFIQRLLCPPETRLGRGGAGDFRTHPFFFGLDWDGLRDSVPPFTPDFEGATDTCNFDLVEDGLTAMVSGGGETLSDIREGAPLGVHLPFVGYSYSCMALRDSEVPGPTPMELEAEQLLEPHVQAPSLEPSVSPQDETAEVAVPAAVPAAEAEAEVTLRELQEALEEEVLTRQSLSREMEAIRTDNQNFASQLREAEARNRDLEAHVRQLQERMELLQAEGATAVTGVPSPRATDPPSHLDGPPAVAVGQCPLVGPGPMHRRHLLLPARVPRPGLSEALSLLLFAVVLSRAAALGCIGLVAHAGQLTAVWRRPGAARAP
# Text: as §1, §2
# SGK3 = SGK3 (Homo sapiens, UniProt Q96BR1); test: DiscoverX scanMAX competition binding assay; design: purchased Eurofins DiscoverX Corporation
# Text: as §1, §2
# PHKG1 = PHKG1 (Homo sapiens, UniProt Q16816); test: DiscoverX scanMAX competition binding assay; design: purchased Eurofins DiscoverX Corporation
# Chain of PHKG1 (Q16816 whole entry): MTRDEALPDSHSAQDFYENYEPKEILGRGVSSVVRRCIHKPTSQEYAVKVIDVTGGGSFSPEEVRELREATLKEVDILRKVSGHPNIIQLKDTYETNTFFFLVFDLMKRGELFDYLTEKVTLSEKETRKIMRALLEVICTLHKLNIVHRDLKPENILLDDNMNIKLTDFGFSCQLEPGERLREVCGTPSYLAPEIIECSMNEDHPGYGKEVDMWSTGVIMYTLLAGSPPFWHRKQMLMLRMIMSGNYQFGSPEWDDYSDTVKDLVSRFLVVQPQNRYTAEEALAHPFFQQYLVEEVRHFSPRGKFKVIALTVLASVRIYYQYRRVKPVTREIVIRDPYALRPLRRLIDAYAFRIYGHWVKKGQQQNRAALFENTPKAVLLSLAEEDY
# Text: as §1, §2
# PIM2 = PIM2 (Homo sapiens, UniProt Q9P1W9); test: DiscoverX scanMAX competition binding assay; design: purchased Eurofins DiscoverX Corporation
# Text: as §1, §2
# ROS1 = ROS1 (Homo sapiens, UniProt P08922); test: DiscoverX scanMAX competition binding assay; design: purchased Eurofins DiscoverX Corporation
# Text: as §1, §2
# BRSK2 [1] = target: T1, BRSK2 (Homo sapiens, UniProt Q8IWQ3); test: DiscoverX scanMAX competition binding assay; design: purchased Eurofins DiscoverX Corporation
# T1 sequence (Q8IWQ3 1-736): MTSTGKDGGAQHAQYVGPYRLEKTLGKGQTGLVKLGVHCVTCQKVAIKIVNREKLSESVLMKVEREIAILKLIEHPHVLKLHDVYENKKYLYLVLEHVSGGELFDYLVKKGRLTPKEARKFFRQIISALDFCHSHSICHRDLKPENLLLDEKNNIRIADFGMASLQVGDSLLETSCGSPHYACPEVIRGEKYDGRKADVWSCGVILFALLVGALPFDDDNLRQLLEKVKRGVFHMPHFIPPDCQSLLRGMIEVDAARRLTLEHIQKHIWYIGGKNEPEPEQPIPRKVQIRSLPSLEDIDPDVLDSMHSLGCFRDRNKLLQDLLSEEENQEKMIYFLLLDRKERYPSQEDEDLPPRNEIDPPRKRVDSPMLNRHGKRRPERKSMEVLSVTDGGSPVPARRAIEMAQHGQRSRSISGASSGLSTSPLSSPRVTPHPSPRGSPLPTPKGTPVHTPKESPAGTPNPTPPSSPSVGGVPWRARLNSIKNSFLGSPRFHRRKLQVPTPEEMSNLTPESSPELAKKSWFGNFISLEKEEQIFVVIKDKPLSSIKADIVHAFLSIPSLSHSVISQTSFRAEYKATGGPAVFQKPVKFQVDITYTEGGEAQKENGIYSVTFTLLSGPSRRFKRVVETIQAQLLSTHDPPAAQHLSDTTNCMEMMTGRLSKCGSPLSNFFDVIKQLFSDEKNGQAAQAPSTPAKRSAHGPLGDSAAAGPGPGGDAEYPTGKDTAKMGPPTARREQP
# Text: as §1, §2
# NUAK1/ARK5 = NUAK1/ARK5 (Homo sapiens, UniProt O60285); test: DiscoverX scanMAX competition binding assay; design: purchased Eurofins DiscoverX Corporation
# Chain of NUAK1/ARK5 (O60285 whole entry): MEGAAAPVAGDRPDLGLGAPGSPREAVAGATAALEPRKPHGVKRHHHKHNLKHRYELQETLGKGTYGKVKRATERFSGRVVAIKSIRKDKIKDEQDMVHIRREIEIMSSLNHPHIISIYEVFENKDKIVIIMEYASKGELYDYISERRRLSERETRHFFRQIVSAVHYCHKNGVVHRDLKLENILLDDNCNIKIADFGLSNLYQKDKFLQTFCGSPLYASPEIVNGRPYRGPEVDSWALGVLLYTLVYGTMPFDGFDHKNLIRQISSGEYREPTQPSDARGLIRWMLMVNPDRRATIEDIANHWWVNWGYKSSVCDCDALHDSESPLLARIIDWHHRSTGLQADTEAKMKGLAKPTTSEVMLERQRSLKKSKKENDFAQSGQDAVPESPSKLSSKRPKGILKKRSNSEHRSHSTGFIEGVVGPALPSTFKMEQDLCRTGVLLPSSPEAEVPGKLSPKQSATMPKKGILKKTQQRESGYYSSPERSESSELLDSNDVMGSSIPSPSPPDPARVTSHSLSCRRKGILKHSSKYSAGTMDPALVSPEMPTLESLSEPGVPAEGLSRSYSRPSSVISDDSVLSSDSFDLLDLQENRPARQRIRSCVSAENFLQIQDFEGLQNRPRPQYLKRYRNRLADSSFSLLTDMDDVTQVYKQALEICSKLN
# Text: as §1, §2
# BRSK1 = target: T2, BRSK1 (Homo sapiens, UniProt Q8TDC3); test: DiscoverX scanMAX competition binding assay; design: purchased Eurofins DiscoverX Corporation
# T2 sequence (Q8TDC3 1-778): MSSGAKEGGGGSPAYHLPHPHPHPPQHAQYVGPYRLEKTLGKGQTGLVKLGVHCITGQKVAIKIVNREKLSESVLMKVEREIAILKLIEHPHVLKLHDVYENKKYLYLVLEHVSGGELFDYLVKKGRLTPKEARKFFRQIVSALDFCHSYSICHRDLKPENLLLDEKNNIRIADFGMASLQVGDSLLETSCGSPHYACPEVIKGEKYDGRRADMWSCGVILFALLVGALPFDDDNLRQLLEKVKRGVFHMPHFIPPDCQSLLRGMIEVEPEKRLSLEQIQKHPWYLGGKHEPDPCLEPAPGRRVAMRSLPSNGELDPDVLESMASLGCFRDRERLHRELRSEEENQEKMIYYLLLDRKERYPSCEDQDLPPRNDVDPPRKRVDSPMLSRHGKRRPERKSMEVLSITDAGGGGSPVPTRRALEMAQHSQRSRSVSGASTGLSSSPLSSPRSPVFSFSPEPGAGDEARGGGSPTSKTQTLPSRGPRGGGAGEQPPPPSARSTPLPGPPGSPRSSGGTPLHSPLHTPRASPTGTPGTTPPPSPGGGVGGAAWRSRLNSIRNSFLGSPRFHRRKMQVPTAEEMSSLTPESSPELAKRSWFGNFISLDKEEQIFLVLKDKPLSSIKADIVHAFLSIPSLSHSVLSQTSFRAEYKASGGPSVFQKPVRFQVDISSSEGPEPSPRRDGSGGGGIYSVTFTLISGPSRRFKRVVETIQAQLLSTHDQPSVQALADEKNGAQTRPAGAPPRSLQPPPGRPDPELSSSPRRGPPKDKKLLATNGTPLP
# Text: as §1, §2
# DAPK1 = DAPK1 (Homo sapiens, UniProt P53355); test: DiscoverX scanMAX competition binding assay; design: purchased Eurofins DiscoverX Corporation
# Chain of DAPK1 (P53355 whole entry): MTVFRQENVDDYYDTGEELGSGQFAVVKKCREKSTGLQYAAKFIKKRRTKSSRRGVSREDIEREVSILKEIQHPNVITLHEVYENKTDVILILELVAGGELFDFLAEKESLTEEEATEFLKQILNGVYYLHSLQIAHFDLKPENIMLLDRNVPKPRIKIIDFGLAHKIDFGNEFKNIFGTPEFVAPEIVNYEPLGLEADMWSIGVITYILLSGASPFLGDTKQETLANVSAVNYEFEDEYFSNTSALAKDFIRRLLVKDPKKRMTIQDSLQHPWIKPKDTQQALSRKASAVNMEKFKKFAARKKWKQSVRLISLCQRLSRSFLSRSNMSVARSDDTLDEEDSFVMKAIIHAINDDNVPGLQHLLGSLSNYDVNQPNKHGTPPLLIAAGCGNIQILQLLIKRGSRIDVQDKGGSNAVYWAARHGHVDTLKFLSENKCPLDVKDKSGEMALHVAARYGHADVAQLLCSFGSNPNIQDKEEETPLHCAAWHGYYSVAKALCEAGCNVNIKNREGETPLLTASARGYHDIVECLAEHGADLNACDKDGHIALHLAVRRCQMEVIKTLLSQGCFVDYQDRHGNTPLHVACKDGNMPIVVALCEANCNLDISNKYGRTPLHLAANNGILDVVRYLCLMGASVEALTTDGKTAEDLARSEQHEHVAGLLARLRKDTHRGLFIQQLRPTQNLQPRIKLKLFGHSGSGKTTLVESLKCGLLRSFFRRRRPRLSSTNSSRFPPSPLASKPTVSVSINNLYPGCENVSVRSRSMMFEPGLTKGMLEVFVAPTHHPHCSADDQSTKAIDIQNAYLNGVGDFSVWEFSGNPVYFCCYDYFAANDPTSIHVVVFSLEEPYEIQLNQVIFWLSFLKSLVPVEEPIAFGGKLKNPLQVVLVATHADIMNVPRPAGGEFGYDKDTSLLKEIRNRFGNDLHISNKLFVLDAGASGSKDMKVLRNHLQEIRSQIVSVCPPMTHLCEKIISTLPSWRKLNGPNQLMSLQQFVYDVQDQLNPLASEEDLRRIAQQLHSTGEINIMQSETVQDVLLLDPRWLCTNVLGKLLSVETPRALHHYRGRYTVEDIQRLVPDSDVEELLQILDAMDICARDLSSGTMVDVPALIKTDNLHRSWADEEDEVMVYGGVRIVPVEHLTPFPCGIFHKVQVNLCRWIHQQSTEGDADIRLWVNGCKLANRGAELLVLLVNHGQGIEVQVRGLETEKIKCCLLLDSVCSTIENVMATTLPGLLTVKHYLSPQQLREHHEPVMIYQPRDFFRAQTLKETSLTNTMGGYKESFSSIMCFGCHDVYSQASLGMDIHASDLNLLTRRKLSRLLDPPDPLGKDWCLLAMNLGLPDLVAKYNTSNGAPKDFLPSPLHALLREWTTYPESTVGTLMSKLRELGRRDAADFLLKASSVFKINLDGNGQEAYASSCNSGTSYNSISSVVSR
# Text: as §1, §2
# CHEK1 = target: T3, CHEK1 (Homo sapiens, UniProt O14757); test: DiscoverX scanMAX competition binding assay; settings: read-out: % inhibition at 1 μM
# T3 construct: purchased Eurofins DiscoverX Corporation
# T3 sequence (O14757 whole entry): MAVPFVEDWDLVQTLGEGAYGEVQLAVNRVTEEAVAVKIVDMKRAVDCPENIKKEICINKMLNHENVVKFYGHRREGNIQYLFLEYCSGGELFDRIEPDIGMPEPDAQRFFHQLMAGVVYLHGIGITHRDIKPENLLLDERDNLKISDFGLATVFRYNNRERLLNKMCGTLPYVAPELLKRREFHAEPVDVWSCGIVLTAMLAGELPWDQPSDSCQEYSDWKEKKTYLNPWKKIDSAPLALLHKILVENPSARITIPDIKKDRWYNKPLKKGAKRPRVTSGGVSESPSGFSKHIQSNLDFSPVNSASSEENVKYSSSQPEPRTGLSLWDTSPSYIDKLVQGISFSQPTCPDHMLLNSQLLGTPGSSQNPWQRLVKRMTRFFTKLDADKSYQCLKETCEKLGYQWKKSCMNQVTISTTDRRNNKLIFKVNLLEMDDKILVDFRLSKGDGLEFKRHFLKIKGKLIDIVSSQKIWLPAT
# STK33 = STK33 (Homo sapiens, UniProt Q9BYT3); design: purchased Eurofins; method as in earlier work; settings: cited from earlier work
# Chain of STK33 (Q9BYT3 whole entry): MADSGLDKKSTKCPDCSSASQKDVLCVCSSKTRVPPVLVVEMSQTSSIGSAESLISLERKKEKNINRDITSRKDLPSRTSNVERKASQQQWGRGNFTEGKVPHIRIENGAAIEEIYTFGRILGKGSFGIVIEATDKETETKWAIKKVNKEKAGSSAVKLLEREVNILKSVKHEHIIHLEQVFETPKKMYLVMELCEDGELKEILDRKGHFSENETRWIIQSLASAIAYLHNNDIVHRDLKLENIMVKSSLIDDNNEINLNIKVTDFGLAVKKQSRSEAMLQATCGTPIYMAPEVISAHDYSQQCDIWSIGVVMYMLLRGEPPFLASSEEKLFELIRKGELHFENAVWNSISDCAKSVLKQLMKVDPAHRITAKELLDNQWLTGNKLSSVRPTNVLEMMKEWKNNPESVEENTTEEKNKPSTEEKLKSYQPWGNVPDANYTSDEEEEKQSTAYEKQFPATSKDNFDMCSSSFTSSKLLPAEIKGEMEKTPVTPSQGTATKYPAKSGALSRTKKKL
# BRSK2 [2] = target: T1, BRSK2; design: purchased Eurofins DiscoverX Corporation; method as in earlier work; settings: cited from earlier work
# PIM3 = PIM3 (Homo sapiens, UniProt Q86V86); design: purchased Eurofins; method as in earlier work; settings: cited from earlier work
# Chain of DCLK3/DCAMKL3 (Q9C098 whole entry): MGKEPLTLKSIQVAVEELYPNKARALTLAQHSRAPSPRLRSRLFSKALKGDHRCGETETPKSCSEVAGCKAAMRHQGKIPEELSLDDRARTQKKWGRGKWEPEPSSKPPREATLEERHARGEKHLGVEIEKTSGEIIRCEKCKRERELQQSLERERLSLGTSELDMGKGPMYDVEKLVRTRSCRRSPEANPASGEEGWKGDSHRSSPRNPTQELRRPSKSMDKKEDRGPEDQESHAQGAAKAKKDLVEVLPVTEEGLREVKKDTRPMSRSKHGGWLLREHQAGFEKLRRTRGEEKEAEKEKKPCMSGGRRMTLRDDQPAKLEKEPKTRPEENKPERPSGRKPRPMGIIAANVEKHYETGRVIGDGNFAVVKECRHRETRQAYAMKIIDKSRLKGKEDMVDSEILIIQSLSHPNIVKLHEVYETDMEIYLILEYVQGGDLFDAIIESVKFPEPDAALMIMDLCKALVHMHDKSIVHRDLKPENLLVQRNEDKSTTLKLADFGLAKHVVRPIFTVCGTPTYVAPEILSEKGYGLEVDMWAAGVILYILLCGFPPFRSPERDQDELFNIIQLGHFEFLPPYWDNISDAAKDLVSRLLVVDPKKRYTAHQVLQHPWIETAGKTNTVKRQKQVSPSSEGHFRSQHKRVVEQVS
compound,measurement,setting,value
COc1ccc2[nH]c3c4[nH]c5ccc(OC)cc5c4c4c(c3c2c1)C(=O)NC4=O [GW296115],inhibition at 1 µM,DCLK3/DCAMKL3,83%
same,inhibition at 1 µM,DMPK,75%
same,inhibition at 1 µM,SGK3,86%
same,inhibition at 1 µM,PHKG1,82%
same,inhibition at 1 µM,PIM2,83%
same,inhibition at 1 µM,ROS1,76%
same,inhibition at 1 µM,BRSK2 [1],83%
same,inhibition at 1 µM,NUAK1/ARK5,85%
same,inhibition at 1 µM,BRSK1,82%
same,inhibition at 1 µM,DAPK1,78%
same,inhibition at 1 µM,CHEK1,70%
same,TSA ΔTm at 10 μM (°C),STK33,9.8 °C
same,Nanosyn % Inhibition at 1 μM,BRSK2 [2],95%
same,TSA ΔTm at 10 μM (°C),PIM3,12.0 °C
